From patent US5137811A, “Method for diagnosing periodontal diseases with a substrate specific for aminopeptidase activity of periodontopathic bacteria” (Sunstar Kabushiki Kaisha, priority 1986, dated 1992)
Where a SMILES comes first, the peptide text is derived from it. The star is where a group is joined. βNA = c1ccc2cc(N*)ccc2c1; Cbz = O=C(OCc1ccccc1)*; Bz = O=C(c1ccccc1)*

Legend:
[1] = system: Actinobacillus actinomycetemcomitans; test: Hydrolytic activity of oral anaerobe cell suspension on aminopeptidase substrates (Experiment 1); type: cell-based; conditions: four strains, substrate 0.2 mM, pH 7.0, 37° C., 60 minutes, Table 1
Protocol: (§1) Oral anaerobes, i.e., four strains of Treponema denticola, five strains of B. gingivalis, four strains of Actinobacillus actinomycetemcomitans, four strains of Capnocytophaga sp. and three strains of Fusobacterium nucleatum were tested for hydrolytic activity to the substrate of aminopeptidase enzyme as follows.
(§2) The strains of Treponema were anaerobically cultivated using TYGVS media at 37° C. for 7 days, while other bacterial strains were cultivated using brain heart infusion broth at 37° C. for 48 to 72 hours. Each culture was diluted to obtain a bacterial cell suspension, the absorption at 660 nm of which was 1.0.
(§3) Substrate compounds for aminopeptidase enzyme having various color developing groups derived from β-naphthylamine were dissolved in 0.1M Tris-HCl buffer (pH 7.0) at the concentration of 0.2 mM to obtain substrate solutions.
(§4) To the substrate solution (1.5 ml) was added the above cell suspension (0.3 ml) and reacted at 37° C. for 60 minutes. After completion of the reaction, a coloring reagent [prepared by dissolving diazonium salt of Garnet GBC in 1M acetate buffer (containing 10% Tween 20, pH: 4.2) at the concentration of 0.5 mg/ml] was added and, after 15 minutes, the absorption at 525 nm was determined with a spectrophotometer.
(§5) On the basis of the average amount of released β-naphthylamine in each strain, the hydrolytic activity was expressed as follows: […]

Bacteroides gingivalis = test: as above; type: cell-based; conditions: five strains, substrate 0.2 mM, pH 7.0, 37° C., 60 minutes, Table 1
Protocol: as §1, §2, §3, §4, §5

Capnocytophaga sp. = test: as above; type: cell-based; conditions: four strains, substrate 0.2 mM, pH 7.0, 37° C., 60 minutes, Table 1
Protocol: as §1, §2, §3, §4, §5

Fusobacterium nucleatum = test: as above; type: cell-based; conditions: three strains, substrate 0.2 mM, pH 7.0, 37° C., 60 minutes, Table 1
Protocol: as §1, §2, §3, §4, §5

Treponema denticola = test: as above; type: cell-based; conditions: four strains, substrate 0.2 mM, pH 7.0, 37° C., 60 minutes, Table 1
Protocol: as §1, §2, §3, §4, §5

[2] = system: periodontopathic bacteria specific aminopeptidase activity; test: Hydrolytic activity of gingival crevicular fluid specimens, visually evaluated (Experiment 4); type: biochemical; set-up: key: -: orange; +: dark orange; ++: brown; +++: dark brown
Protocol: as §3, §4
Specimens of gingival crevicular fluid were collected with paper points from five subjects who were considered to be healthy from their clinical state, six subjects with gingivitis and six subjects with periodontitis. Each specimen was dispersed in Ringer's solution (1.5 ml), and the relative amount of spirochete to total bacteria: [formula] was determined with a phase contrast microscope. Further, the Ringer's solution (0.3 ml) was tested for hydrolytic activity using the substrate solution prepared in the same manner as described in Experiment 1. As substrates, there were used compounds of the formula [1], i.e., N-benzoylvalyl-glycyl-arginine-β-naphthylamide (BzVGR) and N-carbobenzoxy-valyl-glycyl-arginine-β-naphthylamide (CxVGR) were used.
In table 4, hydrolytic activity was visually evaluated and expressed as follows: […]

Structure (SMILES) | hydrolytic activity (average amount of released β-naphthylamine) [1] | hydrolytic activity (average amount of released β-naphthylamine) (Bacteroides gingivalis) | hydrolytic activity (average amount of released β-naphthylamine) (Capnocytophaga sp.) | hydrolytic activity (average amount of released β-naphthylamine) (Fusobacterium nucleatum) | hydrolytic activity (average amount of released β-naphthylamine) (Treponema denticola) | further results
NCCCC[C@H](NC(=O)CN)C(=O)Nc1ccc2ccccc2c1 [GK, glycyl-lysine-β-naphthylamide, reference compound] (H-Gly-Lys-βNA) | - (release amount<5 nmol/ml) | + (10 ≤release amount<20 nmol/ml) | + (10 ≤release amount<20 nmol/ml) | - (release amount<5 nmol/ml) | - (release amount<5 nmol/ml) | 
N=C(N)NCCC[C@H](N)C(=O)NCC(=O)Nc1ccc2ccccc2c1 [RG, arginyl-glycine-β-naphthylamide, reference compound] (H-Arg-Gly-βNA) | - (release amount<5 nmol/ml) | ++ (20 ≤release amount<40 nmol/ml) | + (10 ≤release amount<20 nmol/ml) | - (release amount<5 nmol/ml) | - (release amount<5 nmol/ml) | 
N=C(N)NCCC[C@H](NC(=O)[C@H](CCCCN)NC(=O)OCc1ccccc1)C(=O)Nc1ccc2ccccc2c1 [CxKR, N-carbobenzoxy-lysyl-arginine-β-naphthylamide] (Cbz-Lys-Arg-βNA) | - (release amount<5 nmol/ml) | ++ (20 ≤release amount<40 nmol/ml) | - (release amount<5 nmol/ml) | - (release amount<5 nmol/ml) | ++ (20 ≤release amount<40 nmol/ml) | 
N=C(N)NCCC[C@H](NC(=O)[C@@H](N)CCCNC(=N)N)C(=O)Nc1ccc2ccccc2c1 [RR, arginyl-arginine-β-naphthylamide] (H-Arg-Arg-βNA) | - (release amount<5 nmol/ml) | + (10 ≤release amount<20 nmol/ml) | + (10 ≤release amount<20 nmol/ml) | - (release amount<5 nmol/ml) | +++ (release amount≥40 nmol/ml) | 
N=C(N)NCCC[C@H](NC(=O)[C@@H](N)CCCCN)C(=O)Nc1ccc2ccccc2c1 [KR, lysyl-arginine-β-naphthylamide] (H-Lys-Arg-βNA) | - (release amount<5 nmol/ml) | ++ (20 ≤release amount<40 nmol/ml) | + (10 ≤release amount<20 nmol/ml) | - (release amount<5 nmol/ml) | + (10 ≤release amount<20 nmol/ml) | 
NCC(=O)N[C@@H](Cc1ccccc1)C(=O)Nc1ccc2ccccc2c1 [GF, glycyl-phenylalanine-β-naphthylamide, reference compound] (H-Gly-Phe-βNA) | - (release amount<5 nmol/ml) | ++ (20 ≤release amount<40 nmol/ml) | ± (5 ≤release amount<10 nmol/ml) | - (release amount<5 nmol/ml) | - (release amount<5 nmol/ml) | 
N=C(N)NCCC[C@H](NC(=O)[C@H](Cc1ccccc1)NC(=O)[C@@H]1CCCN1)C(=O)Nc1ccc2ccccc2c1 [PFR, prolyl-phenylalanyl-arginine-β-naphthylamide] (H-Pro-Phe-Arg-βNA) | - (release amount<5 nmol/ml) | +++ (release amount≥40 nmol/ml) | - (release amount<5 nmol/ml) | - (release amount<5 nmol/ml) | +++ (release amount≥40 nmol/ml) | 
N=C(N)NCCC[C@H](NC(=O)OCc1ccccc1)C(=O)N[C@@H](CCCNC(=N)N)C(=O)Nc1ccc2ccccc2c1 [CxRR, N-carbobenzoxy-arginyl-arginine-β-naphthylamide] (Cbz-Arg-Arg-βNA) | - (release amount<5 nmol/ml) | +++ (release amount≥40 nmol/ml) | - (release amount<5 nmol/ml) | - (release amount<5 nmol/ml) | + + | 
N=C(N)NCCC[C@H](NC(=O)[C@@H](N)Cc1ccccc1)C(=O)Nc1ccc2ccccc2c1 [FR, phenylalanyl-arginine-β-naphthylamide] (H-Phe-Arg-βNA) | - (release amount<5 nmol/ml) | + (10 ≤release amount<20 nmol/ml) | ± (5 ≤release amount<10 nmol/ml) | - (release amount<5 nmol/ml) | + (10 ≤release amount<20 nmol/ml) | 
N=C(N)NCCC[C@H](NC(=O)[C@H](Cc1ccccc1)NC(=O)OCc1ccccc1)C(=O)Nc1ccc2ccccc2c1 [CxFR, N-carbobenzoxy-phenylalanyl-arginine-β-naphthylamide] (Cbz-Phe-Arg-βNA) | - (release amount<5 nmol/ml) | +++ (release amount≥40 nmol/ml) | - (release amount<5 nmol/ml) | - (release amount<5 nmol/ml) | +++ (release amount≥40 nmol/ml) | 
CC(C)[C@H](NC(=O)c1ccccc1)C(=O)NCC(=O)N[C@@H](CCCNC(=N)N)C(=O)Nc1ccc2ccccc2c1 [BzVGR, N-benzoyl-valyl-glycyl-arginine-β-naphthylamide] (Bz-Val-Gly-Arg-βNA) | - (release amount<5 nmol/ml) | +++ (release amount≥40 nmol/ml) | - (release amount<5 nmol/ml) | - (release amount<5 nmol/ml) | +++ (release amount≥40 nmol/ml) | hydrolytic activity, visually evaluated ([2]; Gingivitis subject 1 (spirochete 7.3 %)): +; hydrolytic activity, visually evaluated ([2]; Gingivitis subject 2 (spirochete 16.7 %)): +; hydrolytic activity, visually evaluated ([2]; Gingivitis subject 3 (spirochete 20.5 %)): ++; hydrolytic activity, visually evaluated ([2]; Gingivitis subject 4 (spirochete 6.8 %)): -; hydrolytic activity, visually evaluated ([2]; Gingivitis subject 5 (spirochete 7.3 %)): -; hydrolytic activity, visually evaluated ([2]; Gingivitis subject 6 (spirochete 14.4 %)): +; hydrolytic activity, visually evaluated ([2]; Healthy subject 1 (spirochete 0.1 %)): -; hydrolytic activity, visually evaluated ([2]; Healthy subject 2 (spirochete 2.5 %)): +; hydrolytic activity, visually evaluated ([2]; Healthy subject 3 (spirochete 1.1 %)): -; hydrolytic activity, visually evaluated ([2]; Healthy subject 4 (spirochete 0.6 %)): -; hydrolytic activity, visually evaluated ([2]; Healthy subject 5 (spirochete 1.3 %)): -; hydrolytic activity, visually evaluated ([2]; Periodontitis subject 1 (spirochete 45.2 %)): +++; hydrolytic activity, visually evaluated ([2]; Periodontitis subject 2 (spirochete 30.3 %)): +++; hydrolytic activity, visually evaluated ([2]; Periodontitis subject 3 (spirochete 34.6 %)): +++; hydrolytic activity, visually evaluated ([2]; Periodontitis subject 4 (spirochete 21.2 %)): +++; hydrolytic activity, visually evaluated ([2]; Periodontitis subject 5 (spirochete 40.3 %)): +++; hydrolytic activity, visually evaluated ([2]; Periodontitis subject 6 (spirochete 35.1 %)): +++
